Assay [1] is described as follows: Inhibition of recombinant human full-length His6-tagged NTMT1 (1 to 222 residues) expressed in Escherichia coli BL21-CodonPlus(DE3)-RIL competent cells assessed as Me3RCC1 level at 50 uM pre-incubated for 10 mins before RCC1 substrate addition and measured after 15 mins by Western blot analysis relative to control. For orientation: A western blot detects proteins with antibodies after separation by electrophoresis.

The nature of assay [2]: Inhibition of recombinant human full-length His6-tagged NTMT1 (1 to 222 residues) expressed in Escherichia coli BL21-CodonPlus(DE3)-RIL competent cells assessed as Me2RCC1 level at 10 uM pre-incubated for 0 mins before RCC1 substrate addition and measured after 15 mins by Western blot analysis relative to control.
Assay [3] is described as follows: Inhibition of recombinant human full-length His6-tagged NTMT1 (1 to 222 residues) expressed in Escherichia coli BL21-CodonPlus(DE3)-RIL competent cells assessed as Me2RCC1 level at 2 uM pre-incubated for 10 mins before RCC1 substrate addition and measured after 15 mins by Western blot analysis relative to control.
Assay [4] can be described thus: Inhibition of recombinant human full-length His6-tagged NTMT1 (1 to 222 residues) expressed in Escherichia coli BL21-CodonPlus(DE3)-RIL competent cells assessed as Me3RCC1 level at 2 uM pre-incubated for 10 mins before RCC1 substrate addition and measured after 15 mins by Western blot analysis relative to control.
The nature of assay [5]: Inhibition of recombinant human full-length His6-tagged NTMT1 (1 to 222 residues) expressed in Escherichia coli BL21-CodonPlus(DE3)-RIL competent cells assessed as Me2RCC1 level at 10 uM pre-incubated for 10 mins before RCC1 substrate addition and measured after 15 mins by Western blot analysis relative to control.

Where a SMILES comes first, the peptide text is derived from it. The star is where a group is joined. X1 = O=C(Cc1ccc(O)cc1)*

Regarding `N=C(N)NCCC[C@H](NC(=O)[C@H](CCCCN)NC(=O)[C@@H]1CCCN1C(=O)Cc1ccc(O)cc1)C(N)=O`, the IC50 stood at 100 nM in assay [1], 1000 nM in assay [2] and 100 nM in assay [3].

For `N=C(N)NCCC[C@H](NC(=O)[C@H](CCCNC(=N)N)NC(=O)[C@H](CCCNC(=N)N)NC(=O)[C@H](CCC(N)=O)NC(=O)[C@H](CCCNC(=N)N)NC(=O)[C@H](CCCNC(=N)N)NC(=O)[C@H](CCCCN)NC(=O)[C@H](CCCCN)NC(=O)[C@H](CCCNC(=N)N)NC(=O)CNC(=O)[C@H](CCCNC(=N)N)NC(=O)[C@H](CCCCN)NC(=O)[C@@H]1CCCN1C(=O)Cc1ccc(O)cc1)C(N)=O`, the IC50 came out at 1000 nM in assay [4], 200 nM in assay [1], 700 nM in assay [2] and 1000 nM in assay [5].

For the compound `N=C(N)NCCC[C@H](NC(=O)[C@H](CCCNC(=N)N)NC(=O)[C@H](CCCNC(=N)N)NC(=O)[C@H](CCCNC(=N)N)NC(=O)[C@H](CCCNC(=N)N)NC(=O)[C@H](CCCNC(=N)N)NC(=O)[C@H](CCCCN)NC(=O)[C@@H]1CCCN1C(=O)Cc1ccc(O)cc1)C(N)=O` (X1-PKRRRRRR-NH2), the IC50 in assay [4] amounted to 800 nM; in assay [1], 100 nM; in assay [2] it was 900 nM; in assay [3], 100 nM; in assay [5], 1000 nM.

In general, IC50 refers to the midpoint of a concentration-inhibition curve.

These data come from BindingDB's records for doi:10.1021/acs.jmedchem.0c00689 (Virginia Commonwealth University, 2020).
